In US20130150377A1, “Tetrahydropyridinyl and Dihydropyrrolyl Compounds and the Use Thereof” (SHIONOGI & CO., LTD., priority 2008, published 2013):
Counter-ions that a name gives are not always drawn.

biological target: T1, N-type calcium channel (NTCC) (Homo sapiens, UniProt Q00975); assay: FLIPR calcium mobilization assay for N-type calcium channel (differentiated IMR32 cells); assay type: cell-based; settings: N-type calcium channel blockers, calcium mobilization in vitro assay
T1 construct: endogenous in cells; host or cells: differentiated IMR32 cells (ATCC)
Description: Cell maintenance and differentiation. Unless noted otherwise, cell culture reagents were purchased from Mediatech of Herndon, Md. IMR32 cells (American Type Culture Collection, ATCC, Manassas, Va.) were routinely cultured in growth medium consisting of minimum essential medium containing 10% fetal bovine serum (FBS, Hyclone, Logan, Utah), 100 U/mL penicillin, 100 μg/mL streptomycin, 2 mM L-glutamine, 1 mM sodium pyruvate, and 1×MEM non-essential amino acids. 80-90% confluent flasks of cells were differentiated using the following differentiation medium: Growth medium plus 1 mM dibutyryl cyclic AMP (Sigma, St. Louis, Mo.), and 2.5 μM bromodeoxyuridine (Sigma). Cells were differentiated for 8 days by replacing differentiation medium every 2-3 days.
FLIPR Calcium Mobilization Assay for N-type Calcium Channel.
One day prior to performing this assay, differentiated IMR32 cells were treated with 1× CellStripper, and seeded on poly-D-lysine-coated 96-well clear-bottom black plates (Becton Dickinson, Franklin Lakes, N.J.) at 200,000 cells/well. On the day of the assay, the cell plates were washed with IMR32 buffer (127 mM NaCl, 1 mM KCl, 2 mM MgCl2, 700 μM NaH2PO4, 5 mM CaCl2, 5 mM NaHCO3, 8 mM HEPES, 10 mM glucose, pH 7.4), then pre-stimulated with KCl and loaded as follows: […] of IMR32 buffer, 0.05 mL of each compound tested diluted in IMR32 buffer containing 20 μM nitrendipine (Sigma), and 0.1 mL KCl dissolved in IMR32 buffer, plus Fluo-4 were added (3 μM final concentration, Molecular Probes, Eugene, Oreg.). Final test compound concentrations ranged from about 846 pM to about 17 μM, final nitrendipine concentration was 5 μM, and final KCl concentration was 90 mM. After 1 hour, the cells were washed twice with 0.05 mL of each compound tested in nitrendipine-containing IMR32 buffer (no KCl or Fluo-4), and then replaced with 0.1 mL of each compound tested in nitrendipine-containing IMR32 buffer. Plates were then transferred to a Fluorimetric Imaging Plate Reader (FLIPR^96, Molecular Devices, Inc., Sunnyvale, Calif.) for assay. The FLIPR measured basal Fluo-4 fluorescence for 315 seconds (i.e., 5 minutes and 15 seconds), then added 0.1 mL KCl agonist dissolved in IMR32 buffer and measured fluorescence for another 45 seconds. Final test compound concentrations on the cells after FLIPR read ranged from about 846 pM to about 17 μM, final nitrendipine concentration was 5 μM, and final KCl concentration was 90 mM. Data were collected over the entire time course and analyzed using Excel, Graph Pad Prism (version 3.02, Graph Pad, San Diego, Calif.), or an in-house non-linear regression analysis software.

T1 sequence (Q00975 whole entry): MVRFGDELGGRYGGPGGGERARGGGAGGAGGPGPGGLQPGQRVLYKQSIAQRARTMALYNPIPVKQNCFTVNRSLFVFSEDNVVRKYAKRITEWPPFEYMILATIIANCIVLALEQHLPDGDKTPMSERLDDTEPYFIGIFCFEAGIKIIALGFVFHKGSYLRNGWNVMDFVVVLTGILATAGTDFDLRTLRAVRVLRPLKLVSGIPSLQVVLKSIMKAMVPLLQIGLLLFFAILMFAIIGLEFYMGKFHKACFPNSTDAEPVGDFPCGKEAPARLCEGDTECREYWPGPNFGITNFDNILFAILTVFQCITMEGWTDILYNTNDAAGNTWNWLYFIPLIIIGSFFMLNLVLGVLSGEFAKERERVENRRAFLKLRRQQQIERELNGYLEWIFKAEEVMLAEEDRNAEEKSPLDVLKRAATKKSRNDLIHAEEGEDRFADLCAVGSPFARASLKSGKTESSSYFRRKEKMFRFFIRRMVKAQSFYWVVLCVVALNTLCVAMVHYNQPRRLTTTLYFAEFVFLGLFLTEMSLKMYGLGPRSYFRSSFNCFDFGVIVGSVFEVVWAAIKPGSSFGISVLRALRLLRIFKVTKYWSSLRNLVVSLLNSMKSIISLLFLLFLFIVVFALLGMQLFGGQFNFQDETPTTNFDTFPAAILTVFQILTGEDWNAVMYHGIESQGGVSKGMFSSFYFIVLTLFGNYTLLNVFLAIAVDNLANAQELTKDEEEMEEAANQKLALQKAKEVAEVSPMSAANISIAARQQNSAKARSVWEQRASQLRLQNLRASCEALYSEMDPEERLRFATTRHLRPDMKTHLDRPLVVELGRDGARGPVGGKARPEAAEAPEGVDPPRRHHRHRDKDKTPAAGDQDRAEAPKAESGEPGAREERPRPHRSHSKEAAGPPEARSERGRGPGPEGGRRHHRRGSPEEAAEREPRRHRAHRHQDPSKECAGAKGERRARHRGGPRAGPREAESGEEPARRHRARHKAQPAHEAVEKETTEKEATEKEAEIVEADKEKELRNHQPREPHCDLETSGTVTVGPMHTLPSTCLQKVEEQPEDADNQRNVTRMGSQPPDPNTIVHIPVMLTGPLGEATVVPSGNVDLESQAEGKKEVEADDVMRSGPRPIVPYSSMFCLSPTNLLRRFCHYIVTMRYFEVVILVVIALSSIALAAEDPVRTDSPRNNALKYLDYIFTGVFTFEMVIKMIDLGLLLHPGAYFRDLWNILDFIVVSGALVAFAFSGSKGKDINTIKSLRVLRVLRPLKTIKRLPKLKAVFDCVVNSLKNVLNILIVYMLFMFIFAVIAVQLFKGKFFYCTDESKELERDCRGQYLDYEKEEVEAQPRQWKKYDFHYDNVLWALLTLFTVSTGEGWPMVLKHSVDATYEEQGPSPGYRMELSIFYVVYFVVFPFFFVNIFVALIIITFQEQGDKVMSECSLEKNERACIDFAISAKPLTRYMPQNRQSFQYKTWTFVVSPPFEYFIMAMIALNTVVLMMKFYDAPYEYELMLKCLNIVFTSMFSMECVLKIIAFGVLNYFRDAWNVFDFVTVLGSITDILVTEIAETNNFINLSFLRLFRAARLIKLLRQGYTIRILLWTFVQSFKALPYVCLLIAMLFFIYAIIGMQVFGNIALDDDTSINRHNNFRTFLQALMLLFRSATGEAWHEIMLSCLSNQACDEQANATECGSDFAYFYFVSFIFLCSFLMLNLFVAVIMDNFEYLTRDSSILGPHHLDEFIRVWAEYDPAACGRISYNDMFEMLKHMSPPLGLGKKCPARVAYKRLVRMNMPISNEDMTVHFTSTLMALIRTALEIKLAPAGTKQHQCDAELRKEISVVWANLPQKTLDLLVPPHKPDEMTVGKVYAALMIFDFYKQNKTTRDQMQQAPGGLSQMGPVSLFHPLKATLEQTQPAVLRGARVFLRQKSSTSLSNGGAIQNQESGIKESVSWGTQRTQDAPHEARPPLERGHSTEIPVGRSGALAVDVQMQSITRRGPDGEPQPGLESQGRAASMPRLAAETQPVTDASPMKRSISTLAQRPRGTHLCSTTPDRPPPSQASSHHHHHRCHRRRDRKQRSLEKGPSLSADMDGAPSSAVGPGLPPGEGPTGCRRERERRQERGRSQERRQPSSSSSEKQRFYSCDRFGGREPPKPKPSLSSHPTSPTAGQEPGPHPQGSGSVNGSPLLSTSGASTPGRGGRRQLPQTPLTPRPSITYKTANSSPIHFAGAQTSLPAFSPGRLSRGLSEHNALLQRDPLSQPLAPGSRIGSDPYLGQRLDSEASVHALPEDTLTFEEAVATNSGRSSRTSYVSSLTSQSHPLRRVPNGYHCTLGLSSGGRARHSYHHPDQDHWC
T1 sequence (P54289 25-956 partner limits assumed): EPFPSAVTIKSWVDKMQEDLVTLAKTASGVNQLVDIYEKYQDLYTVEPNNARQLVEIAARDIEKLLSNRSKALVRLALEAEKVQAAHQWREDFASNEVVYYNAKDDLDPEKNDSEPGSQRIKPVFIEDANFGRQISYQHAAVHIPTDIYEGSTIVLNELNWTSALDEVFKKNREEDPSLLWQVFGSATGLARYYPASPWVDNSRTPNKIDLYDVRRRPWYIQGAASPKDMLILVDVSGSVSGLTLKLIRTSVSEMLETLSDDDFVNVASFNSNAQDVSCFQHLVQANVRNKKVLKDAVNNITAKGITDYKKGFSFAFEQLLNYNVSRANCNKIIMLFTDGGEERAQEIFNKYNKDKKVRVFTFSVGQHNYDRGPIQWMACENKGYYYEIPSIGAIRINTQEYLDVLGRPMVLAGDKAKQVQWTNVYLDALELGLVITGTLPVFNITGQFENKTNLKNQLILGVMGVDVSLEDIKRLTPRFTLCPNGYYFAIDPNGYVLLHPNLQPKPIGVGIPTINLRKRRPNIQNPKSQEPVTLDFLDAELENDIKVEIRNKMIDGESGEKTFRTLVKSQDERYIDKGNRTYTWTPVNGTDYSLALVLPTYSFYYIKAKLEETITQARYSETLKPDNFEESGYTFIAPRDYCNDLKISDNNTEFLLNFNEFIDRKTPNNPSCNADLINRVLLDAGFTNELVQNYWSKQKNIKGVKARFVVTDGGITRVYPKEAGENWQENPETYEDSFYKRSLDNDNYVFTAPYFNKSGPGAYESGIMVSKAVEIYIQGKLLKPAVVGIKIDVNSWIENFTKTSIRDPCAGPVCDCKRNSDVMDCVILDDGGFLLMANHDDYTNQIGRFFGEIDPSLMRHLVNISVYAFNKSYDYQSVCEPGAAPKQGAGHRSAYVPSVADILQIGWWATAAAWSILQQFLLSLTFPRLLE
T1 sequence (P54289 957-1103 partner limits assumed): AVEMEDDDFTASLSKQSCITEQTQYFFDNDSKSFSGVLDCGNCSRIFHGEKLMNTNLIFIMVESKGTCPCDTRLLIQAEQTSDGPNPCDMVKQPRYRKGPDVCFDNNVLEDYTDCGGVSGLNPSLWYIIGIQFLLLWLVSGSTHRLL
T1 sequence (P54284 whole entry partner): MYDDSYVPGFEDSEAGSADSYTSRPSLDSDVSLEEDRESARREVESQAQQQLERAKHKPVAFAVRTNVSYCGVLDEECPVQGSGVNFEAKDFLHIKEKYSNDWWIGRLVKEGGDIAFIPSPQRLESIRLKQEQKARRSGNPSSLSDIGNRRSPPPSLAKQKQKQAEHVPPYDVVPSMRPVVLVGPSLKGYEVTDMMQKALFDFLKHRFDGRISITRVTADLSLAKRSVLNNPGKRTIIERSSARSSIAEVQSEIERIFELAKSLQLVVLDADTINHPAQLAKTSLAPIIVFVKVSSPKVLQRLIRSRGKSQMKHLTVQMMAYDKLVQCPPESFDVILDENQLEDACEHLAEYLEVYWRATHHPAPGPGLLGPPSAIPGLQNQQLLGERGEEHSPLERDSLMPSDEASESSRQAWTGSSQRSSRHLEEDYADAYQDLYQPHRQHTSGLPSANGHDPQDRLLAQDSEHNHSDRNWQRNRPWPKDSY

Compared with `COC(=O)c1cccc(C2=CCN(S(=O)(=O)c3cccc(C(F)(F)F)c3)CC2)n1` [Compound 25, 1′-(3-Trifluoromethylbenzenesulfonyl)-1′,2′,3′,6′-tetrahydro-[2,4′]bipyridinyl-6-carboxylic acid methyl ester], `NC(=O)c1cccc(C2=CCN(S(=O)(=O)c3cccc(C(F)(F)F)c3)CC2)n1` [Compound 28, 1′-(3-Trifluoromethylbenzenesulfonyl)-1′,2′,3′,6′-tetrahydro-[2,4′]bipyridinyl-6-carboxylic acid amide] is 1.6-fold lower in IC50: 920 nM for the first, 590 nM for the second.

Compared with `O=C(NC1CC1)c1ccnc(C2=CCN(S(=O)(=O)c3cccc(C(F)(F)F)c3)CC2)n1` [Compound 39, 2-[1-(3-Trifluoromethylbenzenesulfonyl)-1,2,3,6-tetrahydropyridin-4-yl]pyrimidine-4-carboxylic acid cyclopropylamide], `O=C(NCC1CC1)c1ccnc(C2=CCN(S(=O)(=O)c3cccc(C(F)(F)F)c3)CC2)n1` [2-[1-(3-Trifluoromethylbenzenesulfonyl)-1,2,3,6-tetrahydropyridin-4-yl]pyrimidine-4-carboxylic acid cyclopropylmethylamide] is 2.2-fold higher in IC50: 60 nM for the first, 130 nM for the second. The first is the more potent here.

First: O=C(NC1CC1)c1cccc(C2=CCN(Cc3cc(C(F)(F)F)no3)CC2)n1 [Compound 76, N-Cyclopropyl-6-{1-[(3-trifluoromethylisoxazol-5-yl)methyl]-1,2,3,6-tetrahydropyridin-4-yl}picolinamide hydrochloride]
Second: O=C(NC1CC1)c1cccc(C2=CCN(S(=O)(=O)c3cccc(C(F)(F)F)c3)CC2)n1 [Compound 7, 1′-(3-Trifluoromethylbenzenesulfonyl)-1′,2′,3′,6′-tetrahydro-[2,4′]bipyridinyl-6-carboxylic acid cyclopropylamide]
The IC50 of the first is 92-fold higher: 2760 nM for the first, 30 nM for the second.

First: O=C(NCCC(F)(F)F)c1cccc(C2=CCN(S(=O)(=O)c3cccc(C(F)(F)F)c3)CC2)n1 [1′-(3-Trifluoromethylbenzenesulfonyl)-1′,2′,3′,6′-tetrahydro-[2,4′]-bipyridinyl-6-carboxylic acid 3,3,3-trifluoropropylamide]
Second: O=C(NCC(F)(F)F)c1cccc(C2=CCN(S(=O)(=O)c3cccc(C(F)(F)F)c3)CC2)n1 [1′-(3-Trifluoromethylbenzenesulfonyl)-1′,2′,3′,6′-tetrahydro-[2,4′]-bipyridinyl-6-carboxylic acid 2,2,2-trifluoroethylamide]
The IC50 of the first is 1.7-fold higher: 50 nM for the first, 30 nM for the second. The second is the more potent here.

`O=C(NC1CC1)c1cccc(C2=CCN(C(c3ccc(OC(F)(F)F)cc3)C(F)(F)F)CC2)n1` (stereo not shown) [Compound 64, 1′-[2,2,2-Trifluoro-1-(4-trifluoromethoxyphenyl)ethyl]-1′,2′,3′,6′-tetrahydro-[2,4′]bipyridinyl-6-carboxylic acid cyclopropylamide] and `O=C(NCC(F)(F)F)c1cccc(C2=CCN(S(=O)(=O)c3ccc(OC(F)(F)F)cc3)CC2)n1` [1′-(4-Trifluoromethoxybenzenesulfonyl)-1′,2′,3′,6′-tetrahydro-[2,4′]-bipyridinyl-6-carboxylic acid 2,2,2-trifluoroethylamide] are within 1.5-fold of each other in IC50: 320 nM for the first, 430 nM for the second.

First: O=C(NC1CC1)c1cccc(C2=CCN(S(=O)(=O)c3ccsc3)CC2)n1 [1′-(Thiophen-3-ylsulfonyl)-1′,2′,3′,6′-tetrahydro-[2,4′]bipyridinyl-6-carboxylic acid cyclopropylamide]
Second: O=C(NC1CC1)c1cccc(C2=CCN(S(=O)(=O)c3cccnc3)CC2)n1 [1′-(Pyridin-3-ylsulfonyl)-1′,2′,3′,6′-tetrahydro-[2,4′]bipyridinyl-6-carboxylic acid cyclopropylamide]
The IC50 of the first is 5.9-fold lower: 1050 nM for the first, 6180 nM for the second.

Going from `O=C(NCC1CC1)c1ncccc1C1=CCN(S(=O)(=O)c2cccc(C(F)(F)F)c2)CC1` [1′-(3-Trifluoromethylbenzenesulfonyl)-1′,2′,3′,6′-tetrahydro-[3,4′]bipyridinyl-2-carboxylic acid cyclopropylmethylamide] to `COC(=O)c1ncccc1C1=CCN(S(=O)(=O)c2cccc(C(F)(F)F)c2)CC1` [1′-(3-Trifluoromethylbenzenesulfonyl)-1′,2′,3′,6′-tetrahydro-[3,4′]bipyridinyl-2-carboxylic acid methyl ester], the IC50 rises from 140 nM to greater than 20000 nM.

Going from `NC(=O)c1ccnc(C2=CCN(S(=O)(=O)c3cccc(C(F)(F)F)c3)CC2)n1` [2-[1-(3-Trifluoromethylbenzenesulfonyl)-1,2,3,6-tetrahydropyridin-4-yl]-pyrimidine-4-carboxylic acid amide] to `O=C(NCCO)c1cccc(C2=CCN(S(=O)(=O)c3cccc(C(F)(F)F)c3)CC2)n1` [1′-(3-Trifluoromethylbenzenesulfonyl)-1′,2′,3′,6′-tetrahydro-[2,4′]bipyridinyl-6-carboxylic acid 2-hydroxyethylamide], the IC50 falls from 360 nM to 70 nM (5.1-fold). The second is the more potent here.

Compared with `O=C(NCCC(F)(F)F)c1cccc(C2=CCN(S(=O)(=O)c3ccc(OC(F)(F)F)cc3)CC2)n1` [1′-(4-Trifluoromethoxybenzenesulfonyl)-1′,2′,3′,6′-tetrahydro-[2,4′]-bipyridinyl-6-carboxylic acid 3,3,3-trifluoropropylamide], `O=C(NCCC(F)(F)F)c1ncccc1C1=CCN(S(=O)(=O)c2ccc(OC(F)(F)F)cc2)CC1` [1′-(4-Trifluoromethoxybenzenesulfonyl)-1′,2′,3′,6′-tetrahydro-[3,4′]bipyridinyl-2-carboxylic acid 3,3,3-trifluoropropylamide] is 3.8-fold higher in IC50: 250 nM for the first, 940 nM for the second.

`O=C(NC1CC1)c1cccc(C2=CCN(S(=O)(=O)c3c(F)cc(F)cc3F)CC2)n1` [1′-(2,4,6-Trifluorobenzenesulfonyl)-1′,2′,3′,6′-tetrahydro-[2,4′]bipyridinyl-6-carboxylic acid cyclopropylamide] and `N#Cc1cc(S(=O)(=O)N2CC=C(c3cccc(C(=O)NC4CC4)n3)CC2)ccc1F` [1′-(3-Cyano-4-fluorobenzenesulfonyl)-1′,2′,3′,6′-tetrahydro-[2,4′]bipyridinyl-6-carboxylic acid cyclopropylamide] are within 1.5-fold of each other in IC50: 990 nM for the first, 770 nM for the second.

Going from `O=C(NC1CC1)c1cccc(C2=CCN(S(=O)(=O)c3cc(Cl)cc(Cl)c3)CC2)n1` [1′-(3,5-Dichlorobenzenesulfonyl)-1′,2′,3′,6′-tetrahydro-[2,4′]bipyridinyl-6-carboxylic acid cyclopropylamide] to `O=C(NC1CC1)c1cccc(C2=CCN(S(=O)(=O)c3ccc(C(F)(F)F)cc3)CC2)n1` [1′-(4-Trifluoromethylbenzenesulfonyl)-1′,2′,3′,6′-tetrahydro-[2,4′]bipyridinyl-6-carboxylic acid cyclopropylamide], the IC50 rises from 50 nM to 110 nM (2.2-fold).

`O=C(NC1CC1)c1cccc(C2=CCN(S(=O)(=O)CCC(F)(F)F)CC2)n1` [1′-(3,3,3-Trifluoropropylsulfonyl)-1′,2′,3′,6′-tetrahydro-[2,4′]bipyridinyl-6-carboxylic acid cyclopropylamide] and `O=C(NC1CC1)c1cccc(C2=CCN(S(=O)(=O)C3CCCC3)CC2)n1` [1′-Cyclopentylsulfonyl-1′,2′,3′,6′-tetrahydro-[2,4′]bipyridinyl-6-carboxylic acid cyclopropylamide] are within 1.5-fold of each other in IC50: 3100 nM for the first, 2700 nM for the second.

First: O=C(NC1CC1)c1coc(C2=CCN(S(=O)(=O)c3ccc(OC(F)(F)F)cc3)CC2)n1 [Compound 61, 2-[1-(4-Trifluoromethoxybenzenesulfonyl)-1,2,3,6-tetrahydropyridin-4-yl]oxazole-4-carboxylic acid cyclopropylamide]
Second: O=C(Nc1ccc(F)cc1)c1cccc(C2=CCN(S(=O)(=O)c3ccc(OC(F)(F)F)cc3)CC2)n1 [1′-(4-Trifluoromethoxybenzenesulfonyl)-1′,2′,3′,6′-tetrahydro-[2,4′]-bipyridinyl-6-carboxylic acid 4-fluorophenylamide]
The IC50 of the first is 6-fold lower: 320 nM for the first, 1920 nM for the second.

Going from `O=C(NCC(F)(F)F)c1ncccc1C1=CCN(S(=O)(=O)c2cccc(C(F)(F)F)c2)CC1` [1′-(3-Trifluoromethylbenzenesulfonyl)-1′,2′,3′,6′-tetrahydro-[3,4′]bipyridinyl-2-carboxylic acid 2,2,2-trifluoroethylamide] to `O=C(NCCC(F)(F)F)c1ncccc1C1=CCN(S(=O)(=O)c2cccc(C(F)(F)F)c2)CC1` [1′-(3-Trifluoromethylbenzenesulfonyl)-1′,2′,3′,6′-tetrahydro-[3,4′]bipyridinyl-2-carboxylic acid 3,3,3-trifluoropropylamide], the IC50 falls from 660 nM to 420 nM (1.6-fold). The second is the more potent here.
